Experimental data: ChEMBL document CHEMBL1201862, “PubChem BioAssay data set” (2004)
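Results reflect a 48-hour exposure of cells in 96-well plates to compound at five concentrations. At the GI50, growth is halved.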 Calls of active or inactive are those of the source. Rule as the data show it: active = GI50 up to about 1.1 µM and inactive = higher.

Experiments:
Assay in all cases: NCI anticancer screen, dose series, 48 h
BT-549 = test system: BT-549
KM12 = test system: KM12
RXF 393 = test system: RXF 393
UO-31 = test system: UO-31
RPMI-8226 = test system: RPMI-8226
SR = test system: SR
OVCAR-3 = test system: OVCAR-3
EKVX = test system: EKVX
HCT-116 = test system: HCT-116
786-0 = test system: 786-0
T47D = test system: T47D
SF-295 = test system: SF-295
CCRF-CEM = test system: CCRF-CEM
IGROV-1 = test system: IGROV-1
CAKI-1 = test system: CAKI-1
Malme-3M = test system: Malme-3M
SN12C = test system: SN12C
MOLT-4 = test system: MOLT-4
HOP-92 = test system: HOP-92
HCT-15 = test system: HCT-15
MDA-N = test system: MDA-N
A549 = test system: A549
SW-620 = test system: SW-620
TK-10 = test system: TK-10
SK-MEL-2 = test system: SK-MEL-2
U-251 = test system: U-251
ACHN = test system: ACHN
DU-145 = test system: DU-145
NCI-H23 = test system: NCI-H23
OVCAR-8 = test system: OVCAR-8
HOP-62 = test system: HOP-62
SK-OV-3 = test system: SK-OV-3
MDA-MB-435 = test system: MDA-MB-435
A498 = test system: A498
NCI-H460 = test system: NCI-H460
K562 = test system: K562
SF-268 = test system: SF-268
SNB-19 = test system: SNB-19
NCI-H522 = test system: NCI-H522
Hs-578T = test system: Hs-578T
M14 = test system: M14
SK-MEL-28 = test system: SK-MEL-28
PC-3 = test system: PC-3
COLO 205 = test system: COLO 205
OVCAR-5 = test system: OVCAR-5
HL-60 = test system: HL-60
MDA-MB-231 = test system: MDA-MB-231
LOX IMVI = test system: LOX IMVI
UACC-257 = test system: UACC-257
OVCAR-4 = test system: OVCAR-4
NCI/ADR-RES = test system: NCI/ADR-RES
SK-MEL-5 = test system: SK-MEL-5
MCF7 = test system: MCF7
UACC-62 = test system: UACC-62
SF-539 = test system: SF-539
HT-29 = test system: HT-29
SNB-75 = test system: SNB-75
NCI-H226 = test system: NCI-H226
HCC 2998 = test system: HCC 2998

In the case of CCCCCc1nnc(NS(=O)(=O)c2ccc(NC(=O)OCC(C)C)cc2)s1, the GI50 (BT-549) was 32.1 µM (inactive), the GI50 (KM12) was 36.1 µM (inactive) and the GI50 (RXF 393) was 74.8 µM (inactive). For the same compound, the GI50 (UO-31) was 33.4 µM (inactive), the GI50 (RPMI-8226) was 19.3 µM (inactive) and the GI50 (SR) was 16.4 µM (inactive). For the same compound, the GI50 (OVCAR-3) was 30.3 µM (inactive), the GI50 (EKVX) was 33.3 µM (inactive) and the GI50 (HCT-116) was 26.2 µM (inactive). The GI50 (786-0) was 40.8 µM (inactive), the GI50 (T47D) was 34.2 µM (inactive) and the GI50 (SF-295) was 37.5 µM (inactive). The GI50 (CCRF-CEM) was 26.4 µM (inactive), the GI50 (IGROV-1) was 25.7 µM (inactive) and the GI50 (CAKI-1) was 36.2 µM (inactive). For the same compound, the GI50 (Malme-3M) was 34.9 µM (inactive), the GI50 (SN12C) was 33.9 µM (inactive) and the GI50 (MOLT-4) was 20.1 µM (inactive). The GI50 (HOP-92) was 24.1 µM (inactive), the GI50 (HCT-15) was 36 µM and the GI50 (MDA-N) was 32.3 µM (inactive). For the same compound, the GI50 (A549) was 34.2 µM (inactive), the GI50 (SW-620) was 40.6 µM (inactive) and the GI50 (TK-10) was 36.9 µM (inactive). For the same compound, the GI50 (SK-MEL-2) was 19.1 µM (inactive), the GI50 (U-251) was 42.9 µM (inactive) and the GI50 (ACHN) was 34.7 µM (inactive). The GI50 (DU-145) was 52 µM (inactive), the GI50 (NCI-H23) was 53.2 µM (inactive) and the GI50 (OVCAR-8) was 32.2 µM (inactive). The GI50 (HOP-62) was 44.5 µM (inactive), the GI50 (SK-OV-3) was 31.5 µM (inactive) and the GI50 (MDA-MB-435) was 33.7 µM (inactive). The GI50 (A498) was 2.64 µM (inactive), the GI50 (NCI-H460) was 31 µM (inactive) and the GI50 (K562) was 25.2 µM (inactive). The GI50 (SF-268) was 41.9 µM (inactive), the GI50 (SNB-19) was 69.3 µM (inactive) and the GI50 (NCI-H522) was 24.5 µM (inactive). For the same compound, the GI50 (Hs-578T) was 51.2 µM (inactive), the GI50 (M14) was 41.9 µM (inactive) and the GI50 (SK-MEL-28) was 41.8 µM (inactive). For the same compound, the GI50 (PC-3) was 36.8 µM (inactive), the GI50 (COLO 205) was 18.5 µM (inactive) and the GI50 (OVCAR-5) was 54.7 µM (inactive). The GI50 (HL-60) was 31.2 µM (inactive), the GI50 (MDA-MB-231) was 36.2 µM (inactive) and the GI50 (LOX IMVI) was 37.2 µM (inactive). For the same compound, the GI50 (UACC-257) was 79.6 µM (inactive), the GI50 (OVCAR-4) was 26.1 µM (inactive) and the GI50 (NCI/ADR-RES) was 39.4 µM (inactive). The GI50 (SK-MEL-5) was 27.1 µM (inactive), the GI50 (MCF7) was 37.8 µM (inactive) and the GI50 (UACC-62) was 29.5 µM (inactive). The GI50 (SF-539) was 26.8 µM (inactive) and the GI50 (HT-29) was 26.8 µM (inactive).

In the case of N/C(=N/c1ccc(O)cc1)S(=O)(=O)O, the GI50 (BT-549) was > 100 µM (inactive), the GI50 (KM12) was > 100 µM (inactive) and the GI50 (RXF 393) was > 100 µM (inactive). For the same compound, the GI50 (UO-31) was > 100 µM (inactive), the GI50 (SR) was > 100 µM (inactive) and the GI50 (OVCAR-3) was > 100 µM (inactive). For the same compound, the GI50 (EKVX) was > 100 µM (inactive), the GI50 (HCT-116) was > 100 µM (inactive) and the GI50 (786-0) was > 100 µM (inactive). For the same compound, the GI50 (T47D) was > 100 µM (inactive), the GI50 (SF-295) was > 100 µM (inactive) and the GI50 (CCRF-CEM) was > 100 µM (inactive). The GI50 (IGROV-1) was > 100 µM (inactive), the GI50 (CAKI-1) was > 100 µM (inactive) and the GI50 (Malme-3M) was > 100 µM (inactive). The GI50 (SN12C) was > 100 µM (inactive), the GI50 (MOLT-4) was > 100 µM (inactive) and the GI50 (HOP-92) was > 100 µM (inactive). For the same compound, the GI50 (HCT-15) was over 100 µM, the GI50 (MDA-N) was > 100 µM (inactive) and the GI50 (A549) was > 100 µM (inactive). For the same compound, the GI50 (SNB-75) was > 100 µM (inactive), the GI50 (SW-620) was > 100 µM (inactive) and the GI50 (NCI-H226) was > 100 µM (inactive). The GI50 (TK-10) was > 100 µM (inactive), the GI50 (SK-MEL-2) was > 100 µM (inactive) and the GI50 (U-251) was > 100 µM (inactive). The GI50 (ACHN) was > 100 µM (inactive), the GI50 (DU-145) was > 100 µM (inactive) and the GI50 (NCI-H23) was > 100 µM (inactive). The GI50 (OVCAR-8) was > 100 µM (inactive), the GI50 (HOP-62) was > 100 µM (inactive) and the GI50 (SK-OV-3) was > 100 µM (inactive). For the same compound, the GI50 (MDA-MB-435) was > 100 µM (inactive), the GI50 (A498) was > 100 µM (inactive) and the GI50 (NCI-H460) was > 100 µM (inactive). For the same compound, the GI50 (K562) was > 100 µM (inactive), the GI50 (SF-268) was > 100 µM (inactive) and the GI50 (SNB-19) was > 100 µM (inactive). The GI50 (NCI-H522) was > 100 µM (inactive), the GI50 (Hs-578T) was > 100 µM (inactive) and the GI50 (M14) was > 100 µM (inactive). For the same compound, the GI50 (PC-3) was > 100 µM (inactive), the GI50 (COLO 205) was > 100 µM (inactive) and the GI50 (OVCAR-5) was > 100 µM (inactive). For the same compound, the GI50 (HL-60) was > 100 µM (inactive), the GI50 (MDA-MB-231) was > 100 µM (inactive) and the GI50 (HCC 2998) was > 100 µM (inactive). For the same compound, the GI50 (LOX IMVI) was > 100 µM (inactive), the GI50 (UACC-257) was > 100 µM (inactive) and the GI50 (OVCAR-4) was > 100 µM (inactive). For the same compound, the GI50 (NCI/ADR-RES) was > 100 µM (inactive), the GI50 (SK-MEL-5) was > 100 µM (inactive) and the GI50 (MCF7) was > 100 µM (inactive). For the same compound, the GI50 (UACC-62) was > 100 µM (inactive), the GI50 (SF-539) was > 100 µM (inactive) and the GI50 (HT-29) was > 100 µM (inactive).

Cc1cc(S(=O)(=O)Nc2nc(N)n(-c3cnc4ccccc4n3)n2)c(S)cc1Cl was tested, and the GI50 (BT-549) was 16.6 µM (inactive), the GI50 (KM12) was 60.4 µM (inactive) and the GI50 (RXF 393) was 99.1 µM (inactive). For the same compound, the GI50 (UO-31) was > 100 µM (inactive), the GI50 (SR) was > 10 µM (inactive) and the GI50 (OVCAR-3) was > 100 µM (inactive). For the same compound, the GI50 (EKVX) was > 100 µM (inactive), the GI50 (HCT-116) was > 100 µM (inactive) and the GI50 (786-0) was > 100 µM (inactive). For the same compound, the GI50 (T47D) was > 100 µM (inactive), the GI50 (CCRF-CEM) was 37.1 µM (inactive) and the GI50 (IGROV-1) was > 100 µM (inactive). The GI50 (CAKI-1) was 95.3 µM (inactive), the GI50 (Malme-3M) was > 100 µM (inactive) and the GI50 (SN12C) was > 100 µM (inactive). For the same compound, the GI50 (HOP-92) was 16.6 µM (inactive), the GI50 (HCT-15) was over 100 µM and the GI50 (MDA-N) was > 100 µM (inactive). For the same compound, the GI50 (A549) was > 100 µM (inactive), the GI50 (SNB-75) was 22.7 µM (inactive) and the GI50 (SW-620) was > 100 µM (inactive). The GI50 (NCI-H226) was 43.7 µM (inactive), the GI50 (TK-10) was > 100 µM (inactive) and the GI50 (SK-MEL-2) was > 100 µM (inactive). For the same compound, the GI50 (U-251) was 41.9 µM (inactive), the GI50 (ACHN) was > 100 µM (inactive) and the GI50 (DU-145) was > 100 µM (inactive). For the same compound, the GI50 (OVCAR-8) was > 100 µM (inactive), the GI50 (HOP-62) was 69.5 µM (inactive) and the GI50 (SK-OV-3) was 85.7 µM (inactive). The GI50 (MDA-MB-435) was > 100 µM (inactive), the GI50 (A498) was 62.2 µM (inactive) and the GI50 (NCI-H460) was 36.6 µM (inactive). For the same compound, the GI50 (K562) was > 100 µM (inactive), the GI50 (SF-268) was 85.3 µM (inactive) and the GI50 (SNB-19) was 39.1 µM (inactive). For the same compound, the GI50 (NCI-H522) was > 100 µM (inactive), the GI50 (Hs-578T) was 78.5 µM (inactive) and the GI50 (M14) was > 100 µM (inactive). The GI50 (SK-MEL-28) was > 100 µM (inactive), the GI50 (PC-3) was > 100 µM (inactive) and the GI50 (COLO 205) was > 100 µM (inactive). The GI50 (OVCAR-5) was > 100 µM (inactive), the GI50 (HL-60) was > 100 µM (inactive) and the GI50 (MDA-MB-231) was > 100 µM (inactive). The GI50 (HCC 2998) was > 100 µM (inactive), the GI50 (LOX IMVI) was > 100 µM (inactive) and the GI50 (UACC-257) was > 100 µM (inactive). For the same compound, the GI50 (OVCAR-4) was > 100 µM (inactive), the GI50 (NCI/ADR-RES) was > 100 µM (inactive) and the GI50 (SK-MEL-5) was > 100 µM (inactive). The GI50 (MCF7) was > 100 µM (inactive), the GI50 (UACC-62) was 49.7 µM (inactive) and the GI50 (SF-539) was > 100 µM (inactive). The GI50 (HT-29) was > 100 µM (inactive).
